In assay [1] the test system is GLP-1-producing cell strain GLUTag. Kind of assay: Function to promote secretion of GLP-1 from GLUTag cells. It is filed as cell-based, mouse. Particulars: incubation 37° C. for 60 minutes, GLP-1 in supernatant by Enzyme immuno assay, vs Hepes B buffer control, FIGS. 2 and 3. Here is the method: A GLP-1-producing cell strain GLUTag derived from the mouse large intestine was cultured in a Dulbecco's modified Eagle's medium supplemented with 10% FBS at 37° C. in the presence of 5% CO2. The GLUTag cells were cultured in a 48-well plate for 2 to 3 days until the cells reached a subconfluent state. Prior to the addition of each of samples, the wells were washed with a Hepes B buffer (140 mM NaCl, 4.5 mM KCl, 20 mM Hepes, 1.2 mM CaCl2, 1.2 mM MgCl2, 10 mM D-glucose, 0.1% BSA, pH 7.4), 80 μl of a sample solution obtained by dissolving each of the samples in the same buffer were added to the wells, and incubation was performed at 37° C. for 60 minutes. γ-Glu-Cys-Gly and cinacalcet were used as the samples. Further, the Hepes B buffer was used as a control. After supernatant collection, the cells were precipitated by centrifugation (800×g, 5 minutes, 4° C.), and 70 μl of the supernatant were collected and cryopreserved. The concentration of GLP-1 in the supernatant was measured with a commercially available Enzyme immuno assay kit (Yanaihara Institute Inc.).
In the same manner as in Example 2, a function to promote the secretion of GLP-1 was examined using a GLP-1-producing cell strain GLUTag. γ-Glu-Cys and protamine were used as samples.

For assay [2], the system named is CCK-producing cell strain STC-1. In words: Function to promote secretion of CCK from STC-1 cells. It is filed as cell-based, mouse. Particulars: incubation 37° C. for 60 minutes, CCK in supernatant by Enzyme immuno assay, vs Hepes B buffer control, FIG. 1. Here is the method: A CCK-producing cell strain STC-1 derived from the mouse small intestine was cultured in a Dulbecco's modified Eagle's medium supplemented with 10% FBS at 37° C. in the presence of 5% CO2. The STC-1 cells were cultured in a 48-well plate for 2 to 3 days until the cells reached a subconfluent state. Prior to the addition of each of the samples, the wells were washed with a Hepes B buffer (140 mM NaCl, 4.5 mM KCl, 20 mM Hepes, 1.2 mM CaCl2, 1.2 mM MgCl2, 10 mM D-glucose, 0.1% BSA, pH 7.4), […] of a sample solution obtained by dissolving each of the samples in the same buffer were added to the wells, and incubation was performed at 37° C. for 60 minutes. γ-Glu-Cys-Gly (Sigma-Aldrich Japan K.K.), γ-Glu-Val-Gly, and cinacalcet were used as the samples. Further, the Hepes B buffer was used as a control. After supernatant collection, the cells were precipitated by centrifugation (800×g, 5 minutes, 4° C.), and 80 μl of the supernatant were collected and cryopreserved.
After the supernatant had been pretreated with an OASIS cartridge (C18), the concentration of CCK in the supernatant was measured with an Enzyme immuno assay kit (Phoenix Pharmaceuticals).

A further assay relates to calcium receptor. The settings on record: shown in WO 2007/055388, WO 2007/055393, WO 2008/139945-7; J. Biol. Chem. 2006; cited from earlier work.
Assay [3] deals with male SD rats. Kind of assay: GLP-1 secretion test in rats (ligated ileal loop). In kind it is in vivo. Particulars: rat, 20 mg/2 mL deionized water into ligated ileum loop, ileal mesenteric vein blood 30-120 minutes, compared to water administration group; FIG. 4. Here is the method: After male SD rats (8-week-old) had been preliminarily fed, fasted overnight, and subjected to celiotomy under ketamine/xylazine anesthesia. GLP-1-producing cells are mainly distributed in an ileal site. Thus, after a ligated ileal loop (30 cm) had been prepared, a catheter was placed into the ileal mesenteric vein, and blood was collected from the catheter at the time of 0 minute (0 time). A sample (2 mL of deionized water, 20 mg of γ-Glu-Cys/2 mL of deionized water) was administered into the ligated ileum loop, blood was collected at 30, 60, 90, and 120 minutes after administration, respectively, and the plasma GLP-1 concentration was measured with an Enzyme immuno assay kit (manufactured by Yanaihara Institute Inc.).

The subject of assay [4] is male SD rats. In words: Oral glucose tolerance test in rats. It is filed as in vivo. The settings on record: rat, oral 160 mg/kg with glucose 2 g/kg, at 15 and 30 minutes after glucose administration, compared to glucose solution alone; FIG. 5. Here is the method: After male SD rats (7-week-old) had been preliminarily fed (for 3 to 4 days), and fasted overnight, they were subjected to an oral glucose tolerance test. Tail vein blood before specimen administration was collected, and a sample [glucose solution alone (2 g/kg weight)/glucose solution comprising γ-Glu-Cys (160 mg/kg weight)] was orally administered with a feeding tube. After sample administration, tail vein blood was collected at 15, 30, 60, 90, and 120 minutes, and the plasma glucose concentration was measured with a commercially available kit (manufactured by Wako Pure Chemical Industries, Ltd.).

*1 amine or outer side, *2 acyl side, *3 side chain or, on linkers, in order; H or OH if unused. Where no end group is shown, it is not given here. [ ]: non-standard residue; d: D form. γGlu = O=C(O)[C@H](CCC(=O)[*:2])N[*:1]; Met(O) = CS(=O)CC[C@H](N)C(=O)O

Consider `C[C@@H](NCCCc1cccc(C(F)(F)F)c1)c1cccc2ccccc12` [cinacalcet, (R)-N-(3-(3-(trifluoromethyl)phenyl)propyl)-1-(1-naphthyl)ethylamine, reference compound], for which, in assay [1], the “promotion of secretion of GLP-1” value is reported as “functioned to promote the secretion of GLP-1”. Besides, in assay [2], the “promotion of secretion of CCK” value is recorded as “functioned to promote the secretion of CCK”.

Consider [γGlu]-Leu, for which the calcium receptor activation result in the assay with calcium receptor is on record as “activate a calcium receptor”. As to protamine, the “promotion of secretion of GLP-1” value in assay [1] was “functioned to promote the secretion of GLP-1”. For [γGlu]-Cys, the “promotion of secretion of GLP-1” value in assay [1] is “functioned to promote the secretion of GLP-1”. For the same compound, in the assay on calcium receptor, the calcium receptor activation result is reported as “activate a calcium receptor”. Besides, the “plasma GLP-1 concentration” value in the assay on male SD rats [3] is “significantly higher elevation of plasma GLP-1 concentration”. Besides, in the assay on male SD rats [4], the blood glucose concentration entry is “significantly lower blood glucose concentration value”. As to Cys-Met, the calcium receptor activation entry in the assay on calcium receptor is “activate a calcium receptor”. In the case of [γGlu]-Ser, the calcium receptor activation result in the assay on calcium receptor is reported as “activate a calcium receptor”. Regarding [γGlu]-[γGlu]-Val, the calcium receptor activation result with calcium receptor is listed as “activate a calcium receptor”. For [γGlu]-Gly, the calcium receptor activation result with calcium receptor is reported as “activate a calcium receptor”. On to Asp-Gly, for which, in the assay on calcium receptor, the calcium receptor activation result is “activate a calcium receptor”. Turning to [γGlu]-[Met(O)], the calcium receptor activation entry in the assay with calcium receptor is “activate a calcium receptor”. For [γGlu]-Val-NH2, the calcium receptor activation result in the assay on calcium receptor is on record as “activate a calcium receptor”. Consider [γGlu]-Thr, for which, in the assay on calcium receptor, the calcium receptor activation result was “activate a calcium receptor”. Consider [γGlu]-Ile, for which the calcium receptor activation result in the assay on calcium receptor is on record as “activate a calcium receptor”. For the compound [γGlu]-Ala, the calcium receptor activation result in the assay with calcium receptor is “activate a calcium receptor”. As for Leu-Asp, the calcium receptor activation result in the assay with calcium receptor is “activate a calcium receptor”. Take γ-Glu-t-Leu: in the assay on calcium receptor, the calcium receptor activation entry is given as “activate a calcium receptor”. Turning to γ-Glu-Cys(S-Me), the calcium receptor activation entry in the assay with calcium receptor is listed as “activate a calcium receptor”. In the case of [γGlu]-Met, the calcium receptor activation entry in the assay with calcium receptor is listed as “activate a calcium receptor”. Consider `N[C@@H](CCC(=O)N[C@@H](CS)C(=O)NCC(=O)O)C(=O)O` [γ-Glu-Cys-Gly], for which the “promotion of secretion of GLP-1” value in assay [1] is “functioned to promote the secretion of GLP-1”. Also, the calcium receptor activation result in the assay on calcium receptor is “is a calcium receptor activator”. Moreover, the “promotion of secretion of CCK” value in assay [2] is listed as “functioned to promote the secretion of CCK”.

On to Gly-Cys, for which the calcium receptor activation entry in the assay on calcium receptor is on record as “activate a calcium receptor”.

Cys-Gly: in the assay with calcium receptor, the calcium receptor activation entry is recorded as “activate a calcium receptor”. For γ-Glu-Cys(S-Me)(O), in the assay with calcium receptor, the calcium receptor activation entry is “activate a calcium receptor”. For the compound [γGlu]-Val, the calcium receptor activation result with calcium receptor is recorded as “activate a calcium receptor”. As to γ-Glu-Orn, the calcium receptor activation result in the assay on calcium receptor is recorded as “activate a calcium receptor”. Take γ-Glu-Tau: the calcium receptor activation entry with calcium receptor is “activate a calcium receptor”.

γ-Glu-Val-ol: the calcium receptor activation result with calcium receptor is on record as “activate a calcium receptor”. On to [γGlu]-Val-Gly, for which the “promotion of secretion of CCK” value in assay [2] is given as “functioned to promote the secretion of CCK”. Consider Glu-Cys, for which, in the assay on calcium receptor, the calcium receptor activation entry is given as “activate a calcium receptor”.

Values taken from patent publication US20110046046A1, “PROPHYLACTIC OR THERAPEUTIC COMPOSITION FOR DIABETES OR OBESITY” (priority 2008, published 2011).
